The text below walks through data of US20250186418A1, “COMPOSITIONS CONTAINING NICOTINAMIDE AND VITAMIN B6 AND METHODS OF USING SUCH COMPOSITIONS FOR REHABILITATION” (SOCIETE DES PRODUITS NESTLE S.A., priority 2020, published 2025).

This assay has as its system Human primary myoblasts. The experiment in a line: Myogenic amplification and commitment of muscle stem cells (Pax7/MyoD staining of human primary myoblasts). Format: cell-based. Conditions: donors 1 and 2 pooled, normalized to total cell number, control DMSO 1%, 96 hours; for proportion of MyoD+ cells, fold change compared to the control condition: FIG. 1B/2B. As for the experimental part: Human Skeletal Muscle Myoblasts were purchased from Lonza (https://bioscience.lonza.com). These cells were isolated from the upper arm or leg muscle tissue of normal donors and used after the second passage. Several donors were tested to ensure cell viability and purity before selecting the final donors, which are a person (refer thereafter as Donor 1), a person (refer thereafter as Donor 2) and a person (refer thereafter as Donor 3). Human primary myoblasts were seeded in 384 well plates at a density of 1'000 cells per well in skeletal muscle growth medium (SKM-M, AMSbio). For treatment, compounds were directly added to the myoblast cultures 16 hours after initial plating. All cultures were then grown for 96 hours. Cells were stained for Pax7 and MyoD expression using antibodies directed against Pax7 and MyoD and counterstained with Hoechst 33342 to visualize cell nuclei. Pax7+ cells are defined as cells that express Pax7 regardless of MyoD expression. […] Image acquisition was performed using the ImageXpress (Molecular Devices) platform. Custom module analysis based on Multi-Wavelength Cell Scoring of the MetaXpress software was used for quantification. *, **, ***, **** indicates difference from the control, One-way ANOVA, with p<0.05, p<0.01, p<0.001, p<0.0001, respectively. Data are presented as Mean+/−SEM Human primary myoblasts from different donors (donor 1, donor 2 or donor 3) were seeded in 384 well plates at a density of 1′000 cells per well in skeletal muscle growth medium (SKM-M, AMSbio). For treatment, compounds were directly added to the myoblast cultures 16 hours after initial plating. All cultures were then grown for 96 hours. Cells were stained for Pax7 and MyoD expression using antibodies directed against Pax7 and MyoD and counterstained with Hoechst 33342 to visualize cell nuclei. Pax7+ cells are defined as cells that express Pax7 regardless of MyoD expression. […] Image acquisition was performed using the ImageXpress (Molecular Devices) platform. Custom module analysis based on Multi-Wavelength Cell Scoring of the MetaXpress software was used for quantification. […]

Regarding `Cc1ncc(CO)c(CO)c1O` [Pyridoxine], the “proportion of MyoD+ cells, fold change compared to the control condition” value was “increasing the proportion of differentiating (MyoD+) cells in a dose dependent manner”.
In the case of `NC(=O)c1cccnc1` [Nicotinamide], the “proportion of MyoD+ cells, fold change compared to the control condition” value was “increasing the proportion of both amplifying (Pax7+) and differentiating (MyoD+) cells in a dose dependent manner”. In addition, under “FIG. 1A/2A”, the “proportion of Pax7+ cells, fold change compared to the control condition” value is “increasing the proportion of both amplifying (Pax7+) and differentiating (MyoD+) cells in a dose dependent manner”.
